# Experimental data taken from article PMC10892410, “[^18F]Fluspidine—A PET Tracer for Imaging of σ1 Receptors in the Central Nervous System” (Pharmaceuticals, 2024).
# Several values for one entry are separate records, joined by “and”; a condition that tells them apart may be missing. Equal values may be shown once. Read-outs that look alike come from different tables or passages of the source.
# How the values were obtained:
# dopamine D2/D3 receptors = conditions: healthy volunteers and HD patients; cited from earlier work
# σ1 receptor [1] = conditions: healthy volunteers and HD patients, therapeutic doses; cited from earlier work
# σ1 receptor [2] = conditions: cited from earlier work; for uptake in the brain: i.v., female CD1-mice
# [3] = cited from earlier work
# σ1 receptor [4] = test: σ1 receptor affinity (receptor binding); conditions: ratio Ki(σ2)/Ki(σ1)
# σ1 receptor [5] = conditions: cited from earlier work
# σ2 receptor [6] = target: σ2 receptor; set-up: method as in PMID 22136765, PMID 21126878, PMID 21072511, PMID 19791807, PMID 21618432; conditions: cited from earlier work
# σ2 receptor [7] = conditions: in Figure 5; cited from earlier work
# σ1 receptor [8] = conditions: in Figure 5; cited from earlier work
# [9] = rhesus monkey, in vivo; cited from earlier work
# σ1 receptor [10] = conditions: cited from earlier work; for SUV120min p.i. as % of SUV5min p.i.: piglet brain; for SUV120min p.i. as % of SUV5min p.i. / whole-brain distribution volume VT: baseline; for VT, cerebellum / VT, colliculi / VT, cortex / VT, hippocampus / VT, midbrain / VT, striatum / VT, thalamus: piglet, Logan plot, baseline conditions, N = 3; for whole-brain distribution volume VT / decrease in VT upon SA 4503 blockade of σ1 receptors / standardized uptake value (SUV) in brain: piglets; for whole-brain distribution volume VT: two-tissue compartment modeling, metabolite-corrected plasma input; for decrease in VT upon SA 4503 blockade of σ1 receptors: whole brain, Logan plot analysis; for standardized uptake value (SUV) in brain: within 3 min after injection
# σ1 receptor [11] = conditions: rhesus monkey, 1-tissue compartment model, baseline conditions, N = 1; cited from earlier work
# [12] = logD7.4 by micro-shake flask method; format: physicochemical; conditions: n-octanol/MOPS buffer pH 7.4, determined by LC-MS
# Method: The lipophilicity of the homologous fluoroalkyl derivatives 1–4 was determined by the micro-shake flask method. After the distribution of the compounds between an n-octanol layer and MOPS buffer (pH 7.4), the amount of the compound in the buffer layer was determined by mass spectrometry. The recorded logD7.4 values were compared with the logD7.2 values determined by the distribution of the analogous ^18F-labeled compounds [^18F]1–[^18F]4 between n-octanol and phosphate-buffered saline, pH 7.2. The logD7.2 values were calculated from the distribution of radioactivity in both layers.
# [13] = metabolic stability with mouse liver microsomes and NADPH; conditions: LC-MS
# Method: After an incubation period of 90 min, the amount of remaining test compound was determined by LC-MS [42, 43, 44].
# human serum albumin = human serum albumin (Homo sapiens, UniProt P02768); test: plasma protein binding by HPLC on human serum albumin stationary phase; format: in vitro ADME; conditions: stationary phase coated with human serum albumin
# Sequence of human serum albumin (P02768 25-609): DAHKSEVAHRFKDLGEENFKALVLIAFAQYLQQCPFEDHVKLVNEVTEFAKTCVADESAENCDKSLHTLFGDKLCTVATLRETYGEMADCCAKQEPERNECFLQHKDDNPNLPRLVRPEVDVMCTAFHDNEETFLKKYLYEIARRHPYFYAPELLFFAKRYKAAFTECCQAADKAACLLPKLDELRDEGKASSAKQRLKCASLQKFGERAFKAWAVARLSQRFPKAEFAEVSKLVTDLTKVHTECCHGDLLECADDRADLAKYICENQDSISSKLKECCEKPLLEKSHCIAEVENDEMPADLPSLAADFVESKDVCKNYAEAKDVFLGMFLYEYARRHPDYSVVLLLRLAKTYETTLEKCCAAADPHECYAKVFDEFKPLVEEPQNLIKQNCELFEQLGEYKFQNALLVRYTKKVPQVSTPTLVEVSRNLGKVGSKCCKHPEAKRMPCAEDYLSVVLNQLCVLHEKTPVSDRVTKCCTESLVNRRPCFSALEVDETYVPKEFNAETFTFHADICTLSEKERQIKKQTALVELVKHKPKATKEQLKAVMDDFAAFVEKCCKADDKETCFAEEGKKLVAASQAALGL
# Method: Plasma protein binding was recorded by HPLC analysis using a stationary phase coated with human serum albumin. The resulting retention times correlate with binding to human serum albumin [42].
# [14] = pH 7.2; cited from earlier work
# σ1 receptor [15] = conditions: cited from earlier work; for VT: healthy volunteers
# [16] = racemic spirocyclic piperidines, read-out: Ki(σ1)
# [17] = pure fluspidine enantiomers, read-out: Ki, σ1 receptor affinity
smiles,measurement,setting,value
"CCCN1CCC(c2cccc(S(C)(=O)=O)c2)CC1 [pridopidine, 4-[3-(methylsulfonyl)phenyl]-1-propylpiperidine]",occupancy of dopamine D2/D3 receptors,dopamine D2/D3 receptors,minimal occupancy
same,binding to the σ1 receptor in the brain (occupancy study),σ1 receptor [1],selective binding
FCCC1OC2(CCN(Cc3ccccc3)CC2)c2ccccc21 (racemic) [rac-[^18F]2],uptake in the brain,σ1 receptor [2]; 5 min p.i.,3.88 % ID/g
same,uptake in the brain,σ1 receptor [2]; 30 min p.i.,4.71 % ID/g
same,uptake in the brain,σ1 receptor [2]; 120 min p.i.,2.82 % ID/g
same,"Ratio of activity concentration, cerebellum vs. olfactory bulb","σ1 receptor [2]; mouse, 45 min p.i., N = 1",1.75
same,"Ratio of activity concentration, cortex vs. olfactory bulb","σ1 receptor [2]; mouse, 45 min p.i., N = 1",1.45
same,"Ratio of activity concentration, facial nucleus vs. olfactory bulb","σ1 receptor [2]; mouse, 45 min p.i., N = 1",4.69
same,"Ratio of activity concentration, hippocampus vs. olfactory bulb","σ1 receptor [2]; mouse, 45 min p.i., N = 1",1.21
same,"Ratio of activity concentration, striatum vs. olfactory bulb","σ1 receptor [2]; mouse, 45 min p.i., N = 1",1.11
same,"Ratio of activity concentration, superficial grey layer of superior colliculus vs. olfactory bulb","σ1 receptor [2]; mouse, 45 min p.i., N = 1",1.57
same,"Ratio of activity concentration, thalamus vs. olfactory bulb","σ1 receptor [2]; mouse, 45 min p.i., N = 1",1.24
same,activity in brain due to unchanged radioligand,"[3]; brains of CD-1 mice, 60 min after intravenous administration",98%
same,proportion of unchanged PET tracer in plasma,"[3]; mouse, in vivo, iv",75%
FCCC1OC2(CCN(Cc3ccc(F)cc3)CC2)c2ccccc21 (stereo not drawn) [compound 5],σ1/σ2 Selectivity,σ1 receptor [4],844
same,Ki,σ1 receptor [5]; [16],0.57 nM
same,Ki,σ2 receptor [6],0.481 µM
CC(c1ccccc1)N1CCC2(CC1)OC(CCF)c1ccccc12 (stereo not drawn) [compound 7],σ1/σ2 Selectivity,σ1 receptor [4],>1000
same,Ki,σ1 receptor [5]; [16],1 nM
same,Ki,σ2 receptor [6]; cells printed in µM,> 1 µM
CCCCN1CCC2(CC1)OC(CCF)c1ccccc12 (stereo not drawn) [compound 8],σ1/σ2 Selectivity,σ1 receptor [4],225
same,Ki,σ1 receptor [5]; [16],3.9 nM
same,Ki,σ2 receptor [6],0.878 µM
"COc1ccc(CCN2CCN(CCCc3ccccc3)CC2)cc1OC [cutamesine, 1-[2-(3,4-dimethoxyphenyl)ethyl]-4-(3-phenylpropyl)piperazine]",IC50,σ2 receptor [7],63.1 nM
same,IC50,σ1 receptor [8],4.6 nM
COc1cc(CCN2CCN(CCCc3ccccc3)CC2)ccc1OCC[18F] [[^18F]FE-SA 4503],IC50,σ2 receptor [7],2.1 nM
same,IC50,σ1 receptor [8],6.5 nM
[18F]CC[C@H]1OC2(CCN(Cc3ccccc3)CC2)c2ccccc21 [(R)-[^18F]2],fraction of unchanged PET tracer in plasma,[9],> 30%
same,SUV120min p.i. as % of SUV5min p.i.,σ1 receptor [10],~ 80%
same,"VT, cerebellum",σ1 receptor [10],140 mL/g
same,"VT, colliculi",σ1 receptor [10],123 mL/g
same,"VT, cortex",σ1 receptor [10],67.8 to 98.4 mL/g
same,"VT, hippocampus",σ1 receptor [10],95.2 mL/g
same,"VT, midbrain",σ1 receptor [10],132 mL/g
same,"VT, striatum",σ1 receptor [10],100 mL/g
same,"VT, thalamus",σ1 receptor [10],106 mL/g
same,whole-brain distribution volume VT,σ1 receptor [10],133 mL/g
same,decrease in VT upon SA 4503 blockade of σ1 receptors,σ1 receptor [10],−89%
same,standardized uptake value (SUV) in brain,σ1 receptor [10],about 2
same,"VT, amygdala",σ1 receptor [11],153 mL/g
same,"VT, caudate",σ1 receptor [11],181 mL/g
same,"VT, cerebellum",σ1 receptor [11],175 mL/g
same,"VT, cortex",σ1 receptor [11],174 to 291 mL/g
same,"VT, hippocampus",σ1 receptor [11],193 mL/g
same,"VT, putamen",σ1 receptor [11],199 mL/g
same,"VT, thalamus",σ1 receptor [11],128 mL/g
FCCCCC1OC2(CCN(Cc3ccccc3)CC2)c2ccccc21 (stereo not drawn) [compound 4],logD,[12],3.71 ± 0.14
same,σ1/σ2 Selectivity,σ1 receptor [4],408
same,In Vitro Metabolism—Intact Compd. after 90 min,[13],28% and 28 ± 4.5%
same,Ki,σ1 receptor [5]; [16],1.2 nM
same,Ki,σ2 receptor [6],0.489 µM
same,fraction unbound,human serum albumin,0.05
same,logD7.2 PET Tracer,[14],3.11 ± 0.14
FCC[C@H]1OC2(CCN(Cc3ccccc3)CC2)c2ccccc21 [(R)-2],Ki,σ1 receptor [5]; [17],0.57 nM
FCCC1OC2(CCN(Cc3ccccc3)CC2)c2ccccc21 (stereo not drawn) [compound 2],logD,[12],3.33 ± 0.07
same,σ1/σ2 Selectivity,σ1 receptor [4],1331
same,In Vitro Metabolism—Intact Compd. after 90 min,[13],34% and 34 ± 8.8%
same,Ki,σ1 receptor [5]; [16],0.59 nM
same,Ki,σ2 receptor [6],0.785 µM
same,fraction unbound,human serum albumin,0.12
same,logD7.2 PET Tracer,[14],2.57 ± 0.32
[18F]CC[C@@H]1OC2(CCN(Cc3ccccc3)CC2)c2ccccc21 [(S)-[^18F]2],fraction of unchanged PET tracer in plasma,[9],> 30%
same,SUV120min p.i. as % of SUV5min p.i.,σ1 receptor [10],~ 50%
same,"VT, cerebellum",σ1 receptor [10],14.8 mL/g
same,"VT, colliculi",σ1 receptor [10],15.2 mL/g
same,"VT, cortex",σ1 receptor [10],9.8 to 13.1 mL/g
same,"VT, hippocampus",σ1 receptor [10],13.5 mL/g
same,"VT, midbrain",σ1 receptor [10],15.4 mL/g
same,"VT, striatum",σ1 receptor [10],13.5 mL/g
same,"VT, thalamus",σ1 receptor [10],14.1 mL/g
same,whole-brain distribution volume VT,σ1 receptor [10],13 mL/g
same,decrease in VT upon SA 4503 blockade of σ1 receptors,σ1 receptor [10],−55%
same,standardized uptake value (SUV) in brain,σ1 receptor [10],about 2
same,"VT, amygdala",σ1 receptor [11],14.6 mL/g
same,"VT, caudate",σ1 receptor [11],13.5 mL/g
same,"VT, cerebellum",σ1 receptor [11],13.6 mL/g
same,"VT, cortex",σ1 receptor [11],14.6 to 19.6 mL/g
same,"VT, hippocampus",σ1 receptor [11],16.4 mL/g
same,"VT, putamen",σ1 receptor [11],14.9 mL/g
same,"VT, thalamus",σ1 receptor [11],12.2 mL/g
same,VT,σ1 receptor [15]; frontal cortex,21 mL/g
same,VT,σ1 receptor [15]; striatum,19 mL/g
same,free fraction in blood plasma fp,σ1 receptor [15]; human,0.023
FCCC1OC2(CCN(CC3CCCCC3)CC2)c2ccccc21 (stereo not drawn) [compound 6],σ1/σ2 Selectivity,σ1 receptor [4],80
same,Ki,σ1 receptor [5]; [16],0.71 nM
same,Ki,σ2 receptor [6],0.057 µM
FCCCC1OC2(CCN(Cc3ccccc3)CC2)c2ccccc21 (stereo not drawn) [compound 3],logD,[12],3.6 ± 0.12
same,σ1/σ2 Selectivity,σ1 receptor [4],598
same,In Vitro Metabolism—Intact Compd. after 90 min,[13],33% and 33 ± 7.9%
same,Ki,σ1 receptor [5]; [16],1.4 nM
same,Ki,σ2 receptor [6],0.837 µM
same,fraction unbound,human serum albumin,0.09
same,logD7.2 PET Tracer,[14],2.78 ± 0.06
CCCCCCCCN1CCC2(CC1)OC(CCF)c1ccccc12 (stereo not drawn) [compound 9],σ1/σ2 Selectivity,σ1 receptor [4],7.9
same,Ki,σ1 receptor [5]; [16],15 nM
same,Ki,σ2 receptor [6],0.118 µM
FCC1OC2(CCN(Cc3ccccc3)CC2)c2ccccc21 (stereo not drawn) [compound 1],logD,[12],2.8 ± 0.04
same,σ1/σ2 Selectivity,σ1 receptor [4],743
same,In Vitro Metabolism—Intact Compd. after 90 min,[13],53% and 53 ± 3.9%
same,Ki,σ1 receptor [5]; [16],0.74 nM
same,Ki,σ2 receptor [6],0.55 µM
same,fraction unbound,human serum albumin,0.16
same,logD7.2 PET Tracer,[14],2.39 ± 0.04
FCC[C@@H]1OC2(CCN(Cc3ccccc3)CC2)c2ccccc21 [(S)-2],Ki,σ1 receptor [5]; [17],2.3 nM
CC(C)=CCN1CCC2(CC1)OC(CCF)c1ccccc12 (stereo not drawn) [compound 10],Ki,σ1 receptor [5]; [16],1.5 nM
same,Ki,σ2 receptor [6]; cells printed in µM,> 1 µM
COc1cc(CCN2CCN(CCCc3ccccc3)CC2)ccc1OC[18F] [[^18F]FM-SA 4503],Ki,σ2 receptor [7],250 nM
same,Ki,σ1 receptor [8],6.4 nM
